Laboratory results published in US10961222B2, “Chemical compound of isocitrate dehydrogenase inhibitor, and application thereof” (NANJING SANHOME PHARMACEUTICAL CO., LTD., priority 2016, dated 2021).

Molecular target: T1, IDH2-R140Q mutant enzyme (Homo sapiens, UniProt P48735, R140Q)
T1 construct: purchased BPS 71100-1
T1 sequence (P48735 40-452 R140Q): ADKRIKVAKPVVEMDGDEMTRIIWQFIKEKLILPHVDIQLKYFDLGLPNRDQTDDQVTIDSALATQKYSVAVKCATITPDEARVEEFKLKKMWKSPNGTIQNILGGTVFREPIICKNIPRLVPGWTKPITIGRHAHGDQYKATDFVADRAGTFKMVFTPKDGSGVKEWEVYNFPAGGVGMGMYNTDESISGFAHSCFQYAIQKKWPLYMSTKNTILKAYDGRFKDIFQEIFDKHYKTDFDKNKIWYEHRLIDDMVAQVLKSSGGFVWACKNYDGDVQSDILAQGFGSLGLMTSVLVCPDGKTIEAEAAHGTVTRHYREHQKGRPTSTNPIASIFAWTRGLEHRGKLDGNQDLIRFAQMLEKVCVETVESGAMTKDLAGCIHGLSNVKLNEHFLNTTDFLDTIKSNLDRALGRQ
Assay: Inhibitory activity of compounds on IDH2-R140Q enzyme in vitro (diaphorase/resazurin fluorescence)
Type: biochemical
Settings: IDH2-R140Q, pre-incubated 16 h with enzyme and NADPH, reaction 1 h with α-ketoglutarate; read-out: R140Q IC50
Procedure: Instrument: SpectraMax M3 Multi-Mode Microplate Reader, purchased from Molecular Devices.
In a 96-well plate, 40 μL of reaction buffer containing 2× enzyme (IDH2-WT or IDH2-R140Q) and cofactor (NADP or NADPH) was added to each well of the compound group and the DMSO control group, and 40 μL of reaction buffer containing 2× cofactor (NADP or NADPH) was added to each well of the enzyme-free control group.
20 μL of reaction buffer containing 4× compound to be tested was added to each well of the compound group. The compound was pre-formulated into 200× mother liquor with 100% DMSO; in the final reaction system, the concentration of DMSO was 0.5%. 20 μL of reaction buffer containing DMSO was added to each well of the DMSO control group; in the final reaction system, the concentration of DMSO was 0.5%.
The compound was mixed well with the enzyme and cofactor, and pre-incubated at room temperature for 16 h;
20 μL of reaction buffer containing 4× reaction substrate was added to each well. After mixed uniformly, the mixture was reacted at room temperature for 1 h.
3× termination and detection solution (it was prepared with reaction buffer, the final concentration of Diaphorase was 0.015 mg/mL, and the final concentration of Resazurin was 0.03 mM) was prepared. 40 μL of 3× termination and detection solution was added to each well of the enzyme reaction system. After mixed uniformly, the mixture was incubated at room temperature for 10 min;
Fluorescence values of two wells were obtained and averaged and the activity rate (Activity %) was calculated. The calculation formula: Activity %=(Measured data−Subtract background)/(DMSO Control−Subtract background)×100, wherein “Measured data” is fluorescence value of the compound in the pre-incubated wells, “Subtract background” is the fluorescence value of the enzyme-free control wells, and “DMSO Control” is the fluorescence value in the DMSO pre-incubated wells. Data was processed by GraphPad Prism v5.0 software and fitted to obtain IC50.

| SMILES | IC50 [nM] |
| --- | --- |
| OC1CCCN(c2nc(Nc3ccnc(C(F)(F)F)c3)nc(-c3cccc(C(F)(F)F)n3)n2)C1 (stereo in doubt) [Example 9, 4-((R)-3-hydroxypiperidin-1-yl)-6-(6-(trifluoromethyl)pyridin-2-yl)-N-(2-(trifluoromethyl)pyridin-4-yl)-1,3,5-triazin-2-amine] | 22 |
| FC(F)(F)c1cc(Nc2nc(-c3cccc(C(F)(F)F)n3)nc(N3CCNCC3)n2)ccn1 [Example 5, 4-(Piperazin-1-yl)-6-(6-(trifluoromethyl)pyridin-2-yl)-N-(2-(trifluoromethyl)pyridin-4-yl)-1,3,5-triazin-2-amine] | 25 |
| FC(F)(F)c1cc(Nc2nc(-c3cccc(C(F)(F)F)n3)nc(N3CCCC(C(F)(F)F)C3)n2)ccn1 (stereo not drawn) [Example 7, 4-(3-(Trifluoromethyl)piperidin-1-yl)-6-(6-(trifluoromethyl)pyridin-2-yl)-N-(2-(trifluoromethyl)pyridin-4-yl)-1,3,5-triazin-2-amine] | 20 |
| O[C@H]1CCCN(c2nc(Nc3ccnc(C(F)(F)F)c3)nc(-c3cccc(C(F)(F)F)n3)n2)C1 [Example 10, 4-((S)-3-hydroxypiperidin-1-yl)-6-(6-(trifluoromethyl)pyridin-2-yl)-N-(2-(trifluoromethyl)pyridin-4-yl)-1,3,5-triazin-2-amine] | 19 |
| N#CC1CCCN(c2nc(Nc3ccnc(C(F)(F)F)c3)nc(-c3cccc(C(F)(F)F)n3)n2)C1 (stereo not drawn) [Example 12, 4-(3-Cyanopiperidin-1-yl)-6-(6-(trifluoromethyl)pyridin-2-yl)-N-(2-(trifluoromethyl)pyridin-4-yl)-1,3,5-triazin-2-amine] | 25 |
| O[C@@H]1CCN(c2nc(Nc3ccnc(C(F)(F)F)c3)nc(-c3cccc(C(F)(F)F)n3)n2)C1 [Example 17, 4-((R)-3-hydroxypyrrolidin-1-yl)-6-(6-(trifluoromethyl)pyridin-2-yl)-N-(2-(trifluoromethyl)pyridin-4-yl)-1,3,5-triazin-2-amine] | 23 |
| O[C@H]1CCN(c2nc(Nc3ccnc(C(F)(F)F)c3)nc(-c3cccc(C(F)(F)F)n3)n2)C1 [Example 18, 4-((S)-3-hydroxypyrrolidin-1-yl)-6-(6-(trifluoromethyl)pyridin-2-yl)-N-(2-(trifluoromethyl)pyridin-4-yl)-1,3,5-triazin-2-amine] | 26 |
| OC1(C(F)(F)F)CCN(c2nc(Nc3ccnc(C(F)(F)F)c3)nc(-c3cccc(C(F)(F)F)n3)n2)CC1 [Example 21, 4-(4-Trifluoromethyl-4-hydroxypiperidin-1-yl)-6-(6-(trifluoromethyl)pyridin-2-yl)-N-(2-(trifluoromethyl)pyridin-4-yl)-1,3,5-triazin-2-amine] | 25 |
| FC1(F)CCC(c2nc(Nc3ccnc(C(F)(F)F)c3)nc(-c3cccc(C(F)(F)F)n3)n2)CC1 [Example 26, 4-(4,4-Difluorocyclohexyl)-6-(6-(trifluoromethyl)pyridin-2-yl)-N-(2-(trifluoromethyl)pyridin-4-yl)-1,3,5-triazin-2-amine] | 21 |
| CC(C)(O)C1CN(c2nc(Nc3ccnc(C(F)(F)F)c3)nc(-c3cccc(C(F)(F)F)n3)n2)C1 [Example 48, 4-(3-(2-propyl-2-ol)azetidin-1-yl)-6-(6-(trifluoromethyl)pyridin-2-yl)-N-(2-(trifluoromethyl)pyridin-4-yl)-1,3,5-triazin-2-amine] | 19 |
| FC(F)(F)c1cc(Nc2nc(-c3cccc(C(F)(F)F)n3)nc(N3CCCCC3)n2)ccn1 [Example 50, 4-(piperidin-1-yl)-6-(6-(trifluoromethyl)pyridin-2-yl)-N-(2-(trifluoromethyl)pyridin-4-yl)-1,3,5-triazin-2-amine] | 22 |
| N#C[C@@H]1CCN(c2nc(Nc3ccnc(C(F)(F)F)c3)nc(-c3cccc(C(F)(F)F)n3)n2)C1 [Example 52, 4-((R)-3-cyanopyrrolidin-1-yl)-6-(6-(trifluoromethyl)pyridin-2-yl)-N-(2-(trifluoromethyl)pyridin-4-yl)-1,3,5-triazin-2-amine] | 23 |

Now those with a lower IC50, led by results:

| IC50 [nM] | SMILES |
| --- | --- |
| 18 | O=S1(=O)CCN(c2nc(Nc3ccnc(C(F)(F)F)c3)nc(-c3cccc(C(F)(F)F)n3)n2)CN1 [Example 8] |
| 14 | FC1CCCN(c2nc(Nc3ccnc(C(F)(F)F)c3)nc(-c3cccc(C(F)(F)F)n3)n2)C1 (stereo not drawn) [Example 11, 4-(3-Fluoropiperidin-1-yl)-6-(6-(trifluoromethyl)pyridin-2-yl)-N-(2-(trifluoromethyl)pyridin-4-yl)-1,3,5-triazin-2-amine] |
| 15 | FC(F)(F)c1cc(Nc2nc(-c3cccc(C(F)(F)F)n3)nc(C3CCCCN3)n2)ccn1 (stereo not drawn) [Example 13, 4-(Piperidin-2-yl)-6-(6-(trifluoromethyl)pyridin-2-yl)-N-(2-(trifluoromethyl)pyridin-4-yl)-1,3,5-triazin-2-amine] |
| 18 | FC1(F)CCN(c2nc(Nc3ccnc(C(F)(F)F)c3)nc(-c3cccc(C(F)(F)F)n3)n2)C1 [Example 15, 4-(3,3-Difluoropyrrolidin-1-yl)-6-(6-(trifluoromethyl)pyridin-2-yl)-N-(2-(trifluoromethyl)pyridin-4-yl)-1,3,5-triazin-2-amine] |
| 14 | FC1CCN(c2nc(Nc3ccnc(C(F)(F)F)c3)nc(-c3cccc(C(F)(F)F)n3)n2)CC1 [Example 19, 4-(4-Fluoropiperidin-1-yl)-6-(6-(trifluoromethyl)pyridin-2-yl)-N-(2-(trifluoromethyl)pyridin-4-yl)-1,3,5-triazin-2-amine] |
| 15 | FC1(F)CC=C(c2nc(Nc3ccnc(C(F)(F)F)c3)nc(-c3cccc(C(F)(F)F)n3)n2)CC1 [Example 25, 4-(4,4-Difluorocyclohexyl-1-en-1-yl)-6-(6-(trifluoromethyl)pyridin-2-yl)-N-(2-(trifluoromethyl)pyridin-4-yl)-1,3,5-triazin-2-amine] |
